Source: publication PMC3774141 (Bioorganic & medicinal chemistry letters, 2013)

Legend:
[1] = tested on: human cancer cell lines (HeLa, A549, H1299, MCF-7); assay: antiproliferative activity, cancer cell lines tested; type: cell-based; settings: read-out: IC50 against the cancer cell lines tested
tubulin = assay: inhibition of tubulin polymerization; type: biochemical
[2] = tested on: human non-small-cell lung carcinoma (A549); settings: read-out: IC50 A549; values taken from the literature for comparison; cited from earlier work
[3] = tested on: breast adenocarcinoma (MCF-7); settings: read-out: IC50 MCF-7; values taken from the literature for comparison; cited from earlier work
[4] = tested on: human cervix carcinoma (HeLa); settings: read-out: IC50 HeLa; values taken from the literature for comparison; cited from earlier work

Structure (SMILES)	IC50 [1]	inhibitors of tubulin polymerization (result in words) (tubulin)	IC50 [2]	IC50 [3]	IC50 [4]
COc1ccc(-c2nnnn2-c2cc(OC)c(OC)c(OC)c2O)cc1 [Compound 5b]	> 45 µM	inactive			
COc1ccc(-c2nnnn2-c2cc(OC)c(OC)c(OC)c2O)c(O)c1 [Compound 5a]	> 45 µM	inactive			
COc1ccc(-c2nnnn2-c2cc(OC)c(OC)c(OC)c2)cc1 [Compound 5f]			0.222 ± 0.059 µM	0.0385 ± 0.0058 µM	0.0026 µM
